Test results taken from US11866429B2, “Heteroaryl-biphenyl amines for the treatment of PD-L1 diseases” (CHEMOCENTRYX, INC., priority 2019, dated 2024).

Target: human PD-L1 (Homo sapiens (Human), UniProt Q9NZQ7)
Test: Enzyme-Linked Immunosorbent Assay (ELISA), PD-1/PD-L1 binding
Conditions: plates coated with human PD-L1; Human PD-1 and biotin added; absorbance at 450 nm
Protocol: 96 Well plates were coated with 1 μg/mL of human PD-L1 (obtained from R&D) in PBS overnight at 4° C. The wells were then blocked with 2% BSA in PBS (W/V) with 0.05% TWEEN-20 for 1 hour at 37° C. The plates were washed 3 times with PBS/0.05% TWEEN-20 and the compounds were serial diluted (1:5) in dilution medium and added to the ELISA plates. Human PD-1 and biotin 0.3 μg/mL (ACRO Biosystems) were added and incubated for 1 hour at 37° C. then washed 3 times with PBS/0.05% TWEEN-20. A second block was performed with 2% BSA in PBS (W/V)/0.05% TWEEN-20 for 10 min at 37° C. and the plates were washed 3 times with PBS/0.05% TWEEN-20. Streptavidin-HRP was added for 1 hour at 37° C. then the plates were washed 3 times with PBS/0.05% TWEEN-20. TMB substrate was added and reacted for 20 min at 37° C. A stop solution (2 N aqueous […]) was added. The absorbance was read at 450 nm using a micro-plate spectrophotometer.

human PD-L1, sequence (Q9NZQ7 19-239): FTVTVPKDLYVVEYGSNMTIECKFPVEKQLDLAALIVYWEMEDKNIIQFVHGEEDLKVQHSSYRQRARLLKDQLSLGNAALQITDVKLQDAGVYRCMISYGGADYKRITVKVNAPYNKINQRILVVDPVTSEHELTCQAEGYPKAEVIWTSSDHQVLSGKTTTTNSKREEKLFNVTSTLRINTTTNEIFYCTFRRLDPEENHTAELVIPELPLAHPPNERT

Row | IC50 [µM] | Structure (SMILES)
1 | < 0.01 | COc1nc(-c2cccc(-c3cccc(Nc4nc(C)nc5cccnc45)c3C)c2Cl)ccc1CNCC(N)=O [Compound 1.041]
2 | < 0.01 | COc1nc(-c2cccc(-c3cccc(Nc4nc(C)nc5cccnc45)c3C)c2Cl)ccc1CNCC(C)(C)O [Compound 1.061]
3 | < 0.01 | COc1nc(-c2cccc(-c3cccc(Nc4nc(C)nc5cccnc45)c3C)c2Cl)ccc1CNC(C)C [Compound 1.029]
4 | < 0.01 | COc1nc(-c2cccc(-c3cccc(Nc4nc(C)nc5cccnc45)c3C)c2Cl)ccc1CN1CC2(CNC(=O)N2)C1 [Compound 1.008]
5 | < 0.01 | COc1nc(-c2cccc(-c3cccc(Nc4nc(C)nc5cccnc45)c3C)c2Cl)ccc1CN1CC(C(=O)O)C1 [Compound 1.066]
6 | < 0.01 | COc1nc(-c2cccc(-c3cccc(Nc4nc(C)nc5cccnc45)c3C)c2Cl)ccc1CN(C)[C@@H]1CCOC[C@@H]1O [Compound 1.042]
7 | < 0.01 | COc1nc(-c2cccc(-c3cccc(Nc4nccc5nccnc45)c3Cl)c2Cl)ccc1CN1CC(O)C1 [Compound 1.079]
8 | < 0.01 | COc1nc(-c2cccc(-c3cccc(Nc4nc(C)nc5cccnc45)c3C)c2Cl)ccc1CN1CC[C@@](C)(O)C1 [Compound 1.034]
9 | < 0.01 | COc1nc(-c2cccc(-c3cccc(Nc4nc(C)nc5cccnc45)c3C)c2F)ccc1CNC[C@@H]1CCC(=O)N1 [Compound 1.013]
10 | < 0.01 | COc1nc(-c2cccc(-c3cccc(Nc4nccc5nccnc45)c3C)c2Cl)ccc1CN[C@@H]1CCOC[C@@H]1O [Compound 1.075]
11 | < 0.01 | COc1nc(-c2cccc(-c3cccc(Nc4nc(C)nc5cccnc45)c3C)c2Cl)cnc1CNCC1(O)CC1 [Compound 1.005]
12 | < 0.01 | COc1nc(-c2cccc(-c3cccc(Nc4nc(C)nc5cccnc45)c3C)c2Cl)ccc1CN1CC[C@@H](C(=O)O)C1 [Compound 1.044]
13 | < 0.01 | COc1nc(-c2cccc(-c3cccc(Nc4nccc5nccnc45)c3Cl)c2Cl)ccc1CN1CC(C)(C(=O)O)C1 [Compound 1.083]
14 | < 0.01 | CCc1nc(-c2cccc(-c3cccc(Nc4nc(C)nc5cccnc45)c3C)c2Cl)ccc1CNC[C@@H]1CCC(=O)N1 [Compound 1.046]
15 | < 0.01 | COc1nc(-c2cccc(-c3cccc(Nc4nc(C)nc5cccnc45)c3C)c2Cl)ccc1CN1CCC(C)(O)CC1 [Compound 1.063]
16 | < 0.01 | COc1nc(-c2cccc(-c3cccc(Nc4nc(C)nc5cccnc45)c3C)c2Cl)ccc1CN[C@H]1CCC(=O)NC1 [Compound 1.023]
17 | < 0.01 | COc1nc(-c2cccc(-c3cccc(Nc4nc(C)nc5cccnc45)c3Cl)c2F)ccc1CNC[C@@H]1CCC(=O)N1 [Compound 1.011]
18 | < 0.01 | COc1nc(-c2cccc(-c3cccc(Nc4nccc5nccnc45)c3Cl)c2Cl)ccc1CNC[C@@H]1CCC(=O)N1 [Compound 1.084]
19 | < 0.01 | COc1nc(-c2cccc(-c3cccc(Nc4nc(C)nc5cccnc45)c3C)c2Cl)ccc1CN[C@H]1CNC(=O)C1 [Compound 1.024]
20 | < 0.01 | COc1nc(-c2cccc(-c3cccc(Nc4nc(C)nc5cccnc45)c3Cl)c2Cl)ccc1CN1CC(C)(C(=O)O)C1 [Compound 1.072]

Row | IC50 [µM] | Structure (SMILES)
21 | < 0.01 | COc1nc(-c2cccc(-c3cccc(Nc4nc(C)nc5cccnc45)c3C)c2Cl)ccc1CNC1CCNCC1 [Compound 1.019]
22 | < 0.01 | COc1nc(-c2cccc(-c3cccc(Nc4nccc5nccnc45)c3Cl)c2Cl)cnc1CN[C@@H]1CCOC[C@@H]1O [Compound 1.001]
23 | < 0.01 | COc1nc(-c2cccc(-c3cccc(Nc4nc(C)nc5cccnc45)c3C)c2Cl)ccc1CNCCO [Compound 1.057]
24 | < 0.01 | COc1nc(-c2cccc(-c3cccc(Nc4nc(C)nc5cccnc45)c3C)c2Cl)ccc1CNC(C)(C)CCO [Compound 1.050]
25 | < 0.01 | COc1nc(-c2cccc(-c3cccc(Nc4nc(C)nc5cccnc45)c3C)c2Cl)ccc1CN1CC(C)(O)C1 [Compound 1.007]
26 | < 0.01 | COc1nc(-c2cccc(-c3cccc(Nc4ncnc5cccnc45)c3Cl)c2Cl)ccc1CNC[C@@H]1CCC(=O)N1 [Compound 1.071]
27 | < 0.01 | COc1nc(-c2cccc(-c3cccc(Nc4nccc5nccnc45)c3Cl)c2Cl)ccc1CN[C@@H]1CNC(=O)C1 [Compound 1.081]
28 | < 0.01 | COc1nc(-c2cccc(-c3cccc(Nc4nc(C)nc5cccnc45)c3C)c2Cl)ccc1CN1CCC[C@@H](C(=O)O)C1 [Compound 1.022]
29 | < 0.01 | COc1nc(-c2cccc(-c3cccc(Nc4nc(C)nc5cccnc45)c3C)c2Cl)ccc1CNC[C@H](O)CO [Compound 1.027]
30 | < 0.01 | COc1nc(-c2cccc(-c3cccc(Nc4nc(C)nc5cccnc45)c3C)c2Cl)ccc1CN1CC(O)C1 [Compound 1.058]
31 | < 0.01 | CCc1nc(-c2cccc(-c3cccc(Nc4nccc5nccnc45)c3Cl)c2Cl)cnc1CNC[C@@H]1CCC(=O)N1 [Compound 1.080]
32 | < 0.01 | COc1nc(-c2cccc(-c3cccc(Nc4nc(C)nc5cccnc45)c3C)c2Cl)ccc1CN[C@@H]1CCC(=O)NC1 [Compound 1.054]
33 | < 0.01 | COc1nc(-c2cccc(-c3cccc(Nc4nc(C)nc5cccnc45)c3C)c2Cl)ccc1CN1CC2(CCNC2=O)C1 [Compound 1.037]
34 | < 0.01 | CCc1nc(-c2cccc(-c3cccc(Nc4nc(C)nc5cccnc45)c3C)c2Cl)ccc1CN[C@@H]1CCOC[C@@H]1O [Compound 1.045]
35 | < 0.01 | Cc1nc(Nc2cccc(-c3cccc(-c4ccc(CNC[C@@H]5CCC(=O)N5)c(C(F)(F)F)n4)c3Cl)c2C)c2ncccc2n1 [Compound 1.020]
36 | < 0.01 | COc1nc(-c2cccc(-c3cccc(Nc4nc(C)nc5cccnc45)c3C)c2F)ccc1CN[C@@H]1CCOC[C@@H]1O [Compound 1.012]
37 | < 0.01 | COc1nc(-c2cccc(-c3cccc(Nc4nc(C)nc5cccnc45)c3C)c2Cl)ccc1CNC[C@H](O)CC(=O)O [Compound 1.016]
38 | < 0.01 | COc1nc(-c2cccc(-c3cccc(Nc4nc(C)nc5cccnc45)c3C)c2Cl)ccc1CN1CCOCC1 [Compound 1.049]
39 | < 0.01 | COc1nc(-c2cccc(-c3cccc(Nc4nc(C)nc5cccnc45)c3C)c2Cl)ccc1CNC(C)(C)C(=O)O [Compound 1.030]
40 | < 0.01 | COc1nc(-c2cccc(-c3cccc(Nc4nc(C)nc5cccnc45)c3C)c2Cl)ccc1CNCCn1ccnc1 [Compound 1.032]

Row | IC50 [µM] | Structure (SMILES)
41 | < 0.01 | COc1nc(-c2cccc(-c3cccc(Nc4nc(C)nc5cccnc45)c3C)c2Cl)ccc1CNCC(=O)O [Compound 1.031]
42 | < 0.01 | COc1nc(-c2cccc(-c3cccc(Nc4nc(C(F)(F)F)nc5cccnc45)c3C)c2Cl)ccc1CNC[C@@H]1CCC(=O)N1 [Compound 1.070]
43 | < 0.01 | COc1nc(-c2cccc(-c3cccc(Nc4nccc5nccnc45)c3Cl)c2Cl)cnc1CNC[C@@H]1CCC(=O)N1 [Compound 1.004]
44 | < 0.01 | COc1nc(-c2cccc(-c3cccc(Nc4nc(C)nc5cccnc45)c3C)c2Cl)ccc1CN1CC(C)(C(=O)O)C1 [Compound 1.065]
45 | < 0.01 | COc1nc(-c2cccc(-c3cccc(Nc4nc(C)nc5cccnc45)c3C)c2Cl)ccc1CNC(CO)(CO)CO [Compound 1.062]
46 | < 0.01 | COc1nc(-c2cccc(-c3cccc(Nc4nccc5nccnc45)c3Cl)c2Cl)cnc1CN1CC(C)(C(=O)O)C1 [Compound 1.003]
47 | < 0.01 | Cc1nc(Nc2cccc(-c3cccc(-c4ccc(CNC[C@@H]5CCC(=O)N5)c(C)n4)c3Cl)c2C)c2ncccc2n1 [Compound 1.048]
48 | < 0.01 | COc1nc(-c2cccc(-c3cccc(Nc4nc(C)nc5cccnc45)c3C)c2Cl)ccc1CN1CCCC[C@H]1C(=O)O [Compound 1.036]
49 | < 0.01 | COc1nc(-c2cccc(-c3cccc(Nc4nc(C)nc5cccnc45)c3C)c2Cl)ccc1CNC[C@@H]1CCC(=O)N1 [Compound 1.073]
50 | < 0.01 | COc1nc(-c2cccc(-c3cccc(Nc4nccc5nccnc45)c3Cl)c2Cl)ccc1CN1CC(C(=O)O)C1 [Compound 1.082]
51 | < 0.01 | CCOc1nc(-c2cccc(-c3cccc(Nc4nc(C)nc5cccnc45)c3C)c2Cl)ccc1CNC[C@@H]1CCC(=O)N1 [Compound 1.014]
52 | < 0.01 | COc1nc(-c2cccc(-c3cccc(Nc4nc(C)nc5cccnc45)c3C)c2Cl)ccc1CN[C@@H]1CNC(=O)C1 [Compound 1.055]
53 | < 0.01 | COc1nc(-c2cccc(-c3cccc(Nc4nc(C)nc5cccnc45)c3C)c2Cl)ccc1CN(C)CCO [Compound 1.021]
54 | < 0.01 | CNCc1ccc(-c2cccc(-c3cccc(Nc4nc(C)nc5cccnc45)c3C)c2Cl)nc1OC [Compound 1.038]
55 | < 0.01 | COc1nc(-c2cccc(-c3cccc(Nc4nccc5nccnc45)c3C)c2Cl)ccc1CNC[C@@H]1CCC(=O)N1 [Compound 1.078]
56 | < 0.01 | COc1nc(-c2cccc(-c3cccc(Nc4nc(C)nc5cccnc45)c3C)c2Cl)ccc1CN1CC[C@@H](O)C1 [Compound 1.040]
57 | < 0.01 | COc1nc(-c2cccc(-c3cccc(Nc4nc(C)nc5cccnc45)c3Cl)c2Cl)ccc1CNC[C@@H]1CCC(=O)N1 [Compound 1.074]
58 | < 0.01 | COc1nc(-c2cccc(-c3cccc(Nc4nc(C)nc5cccnc45)c3C)c2Cl)ccc1CNC(CO)CO [Compound 1.056]
59 | < 0.01 | COc1nc(-c2cccc(-c3cccc(Nc4nc(C)nc5cccnc45)c3C)c2Cl)ccc1CNC[C@H]1CCC(=O)N1 [Compound 1.026]
60 | < 0.01 | COc1nc(-c2cccc(-c3cccc(Nc4nc(C)nc5cccnc45)c3C)c2Cl)ccc1CNCc1ncc[nH]1 [Compound 1.025]
